Read-outs that look alike come from different tables or passages of the source.
What was measured:
[1] = Pharmacokinetic (PK) study: blood from cardiac puncture; assay type: in vivo, mice; details: IP 100 mg/kg, estimated
Procedure: Pharmacokinetic (PK) Study: Blood from Cardiac Puncture • Method: • Drug-Treatment: • Mice: CD-1 female mice (8-10 weeks, 25-30 g) • mice were injected (IP) with Test Drug (10 mg/ml, in 10% DMSO-20% Tween-80 in PBS) at a dose of 100 mg/kg. • At 1 and 2 hours after drug treatments, individual animals were anesthetized with isoflurane. • blood was obtained by cardiac puncture (between the chest-ribs bones). Animals were then euthanized by cervical dislocation. • Plasma Isolation: • Blood (0.6-0.8 ml) was centrifuged (2000 g, 15 minutes). Plasma was collected from the top layer. • 1 volume of plasma was mixed with 3 volume of acetonitrile/0.005% TFA. Mixture was stored in −20° C. for 6 minutes. • Sample was centrifuged (16000 g, 10 minutes). Supernatant was subjected to HPLC analysis. • HPLC Analysis Conditions: • Column: C18 μBondapak • Solvent: 60% acetonitrile/0.005% TFA (Trifluoroacetic acid) • Gradient: isocratic • Flow rate and run time: 1 ml/min for 30 minutes • Detection wavelength: 207 nm • O.D. range: 0.05 full scale • Calculation: • Standard cures of Test Drug is constructed (Area/3000K=1 ug Test Drug) • Area of Test Drug peak from Sample is Recorded • Amount of Test Drug was calculated according to standard cures.

MCF-7 = experiment: MTT assay, breast (MCF-7); assay type: cell-based
Procedure: (§1) Cells. HTB-9 (bladder), HeLa-S3 (cervix), DU145 (prostate), H460 (lung), MCF-7 (breast), K562 (leukemia), HCT116 (colon), HepG2 (liver), U2OS (bone), T98G (brain), SK-MEL-5 (Skin) and OVCAR 3, ES2 (ovary), Pancreas (Capan), Mouth (KB), Kidney (A498).
(§2) MTT Assay. The procedure for MTT assay followed the method described by Carmichael et al. (1987) with modifications. The cells were seeded into a 96-well plate at for 24 hours before drug-treatment. The cells were then exposed to the drugs for 48, 72, or 96 hours. After the drug-treatment, MTT (0.5 mg/mL) was added to cultures and incubated for an hour. The formazan (product of the reduction of tetrazolium by viable cells) formed and was dissolved with DMSO and the O.D. at 490 nm, and was measured by an ELISA reader. The MTT level of the cells before drug-treatment was also measured (T0). The % cell-growth (% G) is calculated as: % G=(TD−T0/TC−T0)×100(1), where TC or TD represents O.D. readings of control or drug-treated cells.
(§3) When T0>TD, then the cytotoxicity (LC) expressed as % of the control is calculated as: % LC=(TD−T0/T0)×100(2).

U2OS = experiment: MTT assay, bone (U2OS); assay type: cell-based
Procedure: as §1, §2, §3

K562 = experiment: MTT assay, leukemia (K562); assay type: cell-based, human
Procedure: as §1, §2, §3

HTB-9 = experiment: MTT assay, bladder (HTB-9); assay type: cell-based
Procedure: as §1, §2, §3

DU145 = experiment: MTT assay, prostate (DU145); assay type: cell-based
Procedure: as §1, §2, §3

KB cells = experiment: MTT assay, mouth (KB); assay type: cell-based
Procedure: as §1, §2, §3

SK-Mel-5 = experiment: MTT assay, skin (SK-Mel-5); assay type: cell-based
Procedure: as §1, §2, §3

T98G = experiment: MTT assay, brain (T98G); assay type: cell-based
Procedure: as §1, §2, §3

Swiss3T3 cells = experiment: Cytotoxicity determination in Swiss3T3 normal fibroblast; assay type: cell-based; details: mouse normal fibroblast; preliminary results
Procedure: as §2

HCT116 = experiment: MTT assay, colon (HCT116); assay type: cell-based
Procedure: as §1, §2, §3

A498 = experiment: MTT assay, kidney (A498); assay type: cell-based
Procedure: as §1, §2, §3

HeLa = experiment: MTT assay, cervix (HeLa); assay type: cell-based
Procedure: as §1, §2, §3

red blood cells (RBC) = experiment: Haemolytic assay; assay type: cell-based, human
Procedure: Erythrocytes (RBC) were isolated from human blood (EDTA whole blood, collected randomly). 50 ul of the 10% RBC suspension (in PBS) was added to 2 ml of sample solutions (concentration range from 0.1 ug/ml to 400 ug/ml) in PBS. The mixture was vortexed briefly and sat for 60 min at room temperature. The mixture was spun at 3K for 10 min and the relative amounts of lysed hemoglobin in the supernatant were measured at 540 nm. The synthetic compounds of present application were tested with this method.

K562 cells [2] = experiment: Inhibition of leukemia K562 cells growth (cell count); assay type: cell-based, human
Procedure: Method: • 1. Cells: Human leukemia cells K562 in RPMI1640 medium. • 2. Drug: Tig-S (1000× stock solution in DMSO). • 3. Start cells concentration: 50×10K per ml (500000/ml). • 4. Cells were cultured with or without drug for total of four days. • 5. Cell number is doubled after 2 days of incubation. Fresh medium (equal volume, with or without drug) was then added to culture. • 6. Cells were counted every day.

K562 cells [3] = experiment: Inhibition of cell cycling (flow cytometry); assay type: cell-based, human; details: K562, three days, 0-20 ug/ml
Procedure: Experiment 31: Inhibition of Cell Cycling • 1. Method: Cells: Human leukemia cells K562 cultured in RPMI1640 medium. • 2. Drug: compound from present application or Tig-S (1000× stock solution in DMSO). • 3. Start cells concentration: 500000/ml. • 4. Cells were cultured with drug (0-20 ug/ml) for total of three days. • 5. Cells were harvested by centrifugation (136×g, 6 minutes); fixed with 70% ethanol and kept in −20 C before staining. • 6. Staining: Fixed cells were stained with Propidium iodide/RNase A/0.1% Triton X-100 in PBS. • 7. Flow Cytometry Analysis was performed in Baylor Core Facility with a LSRII instrument. • 8. Analysis: Single cell was gated and cell count—FL2-Area histogram were plotted. • 9. Cell distribution in different cell-cycle phases (G0/G1, S, G2/M) was analyzed.

SMILES	half-life [1]	IC50 of breast (MCF-7) (MCF-7) [µg/mL]	IC50 of bone (U2OS) (U2OS) [µg/mL]	IC50 of leukemia (K562) (K562) [µg/mL]	IC50 of bladder (HTB-9) (HTB-9) [µg/mL]	IC50 of prostate (DU145) (DU145) [µg/mL]	IC50 of mouth (KB) (KB cells) [µg/mL]	IC50 of skin (SK-Mel-5) (SK-Mel-5) [µg/mL]	IC50 of brain (T98G) (T98G) [µg/mL]	IC50 in SW3T3 cells (Swiss3T3 cells)	IC50 of colon (HCT116) (HCT116) [µg/mL]	IC50 of kidney (A498) (A498) [µg/mL]	IC50 of cervix (HeLa) (HeLa) [µg/mL]	hemolytic activity (red blood cells (RBC))	hemolytic activity (red blood cells (RBC); up to 20 ug/ml)	No grow (IC100) (K562 cells [2]; beginning on day 2) [µg/mL]	IC50, inhibition of Leukemia K562 cells growth (K562 cells [2]; cell count, up to four days)	effect on cell cycle (K562 cells [3])
CC=C(C)C(=O)OCC1(C)C(O)CCC2(C)C1CCC1(C)C2CC=C2C3CC(C)(C)C(O)C(O)C3(COC(=O)C(C)=CC)C(O)CC21C (stereo not drawn) [Tig-R, 24,28-O-Tigloyl-3β,16α,21β,22α,24β,28-hexahydroxyolean-12-ene]	about one	4.5	4.5	2	2.5	3.6	3	5.1	8	above 20 ug/ml	5.2	3.5	5	no hemolytic activity	do not have hemolytic activity			
CC=C(C)C(=O)OCC1(C)C(O)CCC2(C)C1CCC1(C)C2CC=C2C3CC(C)(C)C(OC(=O)C(C)=CC)C(O)C3(CO)C(O)CC21C (stereo not drawn) [Tig-S]																≥ 2.5	about 0.6 ug/ml	arrested in the S-phase

Source: US20230159436A1, “APPLICATIONS OF AMIDE ANALOGS OF TRITERPENES IN CURES OF CANCER AND OTHER DISEASES” (Pacific Arrow Limited, priority 2021, published 2023)
